Values after ≈ are worked out from the molar mass of the structure shown. Active and inactive are the calls of the source. No cut-off for these calls is given here.
Experiments:
NCI-H187 = test: Cytotoxicity against human NCI-H187 cells; assay type: functional, cell-based
Plasmodium falciparum = test: Antimalarial activity against multidrug-resistant Plasmodium falciparum K1 by microculture radioisotope assay; assay type: functional, organism-based
[1] = (§1) Cytotoxicity against human BC cells; assay type: functional, cell-based
[2] = test system: Mycobacterium tuberculosis; test: Antimycobacterial activity against Mycobacterium tuberculosis H37Ra by Alamar blue assay; assay type: functional
KB = test: Cytotoxicity against human KB cells; assay type: functional, cell-based
BC = test: as §1; assay type: functional, cell-based

Row | SMILES | IC50 (NCI-H187) | IC50 (Plasmodium falciparum) | IC50 [1] | MIC [2] | IC50 (KB) | Activity (NCI-H187) | Activity (Plasmodium falciparum) | Activity (BC) | Activity [2] | Activity (KB)
1 | CC(C)=CCc1cc([C@@H]2CC(=O)c3c(O)cc(O)c(CC=C(C)C)c3O2)ccc1O [LESPEDEZAFLAVANONE B] | 7.6 µg/mL (≈ 18.6 µM) | 3.7 µg/mL (≈ 9.06 µM) | 7.6 µg/mL (≈ 18.6 µM) | 100 µg/mL (≈ 245 µM) | 7.6 µg/mL (≈ 18.6 µM) | – | – | – | – | –
2 | CO[C@@H]1C[C@@]23C(=C[C@H]1O)CCN2C(=O)C(=O)c1cc2c(cc13)OCO2 | – | – | – | – | – | inactive | inactive | inactive | inactive | inactive
3 | COc1cc2c(cc1OC)[C@]13C[C@@H](OC)[C@H](O)C=C1CCN3C(=O)C2=O | – | – | – | – | – | inactive | inactive | inactive | inactive | inactive
4 | CC(C)=CCc1cc([C@@H]2CC(=O)c3c(O)cc(O)cc3O2)cc(CC=C(C)C)c1O [ABYSSINONE V] | – | 7 µg/mL (≈ 17.1 µM) | – | 100 µg/mL (≈ 245 µM) | – | – | – | – | – | –
5 | COc1c(CC=C(C)C)c(O)cc2c1[C@@H]1Oc3c(ccc(O)c3CC=C(C)C)[C@@H]1CO2 | 7.6 µg/mL (≈ 18 µM) | – | 7.6 µg/mL (≈ 18 µM) | 50 µg/mL (≈ 118 µM) | 7.6 µg/mL (≈ 18 µM) | – | – | – | – | –
6 | COc1ccc2c(c1)OC[C@@]1(O)c3ccc4c(c3O[C@@H]21)C[C@H](O)C(C)(C)O4 [ERYVARIN A] | – | – | – | 100 µg/mL (≈ 270 µM) | – | – | – | – | – | –
